In patent publication US10745755B2, “Sestrin activators for preventing and/or attenuating skin ageing and/or hydrating the skin and/or for regulating skin pigmentation” (CHANEL PARFUMS BEAUTE, priority 2014, dated 2020):

Columns and labels:
Type in all cases: cell-based
[1] = tested on: SESN3; assay: SESN3 immunofluorescence in human skin equivalents; conditions: versus untreated control, extract last 7 days, retinol last 4 days
Protocol: (§1) Keratinocytes and fibroblasts from juvenile donors were purchased from Promocell. The dermal equivalent consists of a collagen solution containing rat tail collagen type I (BD Biosciences), 10× DMEM medium (Gibco/Invitrogen), sodium bicarbonate (Gibco/Invitrogen) and fibroblasts added into 6 well-culture inserts (BD) and placed in deep 6-well culture plates (BD). After 2 hours, of polymerisation at 37° C., dermal equivalents were equilibrated in supplemented Keratinocyte Growth Medium (KGM2 basal medium+SupplementMix, Promocell) and placed at 37° C., 5% CO2. After 24 hours, suspension of keratinocytes was added over the gel and submerged for 3 days in supplemented Keratinocyte Growth Medium. The inserts were placed at the air liquid interface in Serum-free Keratinocyte Defined Medium (SKDM: SKDM is a high Ca^2+ medium consisting of KGM2 basal medium, transferrin (Sigma), BSA (Sigma) and L-ascorbic acid (Sigma)) for 10 days. 24 hours before culture arrest, skin equivalents were irradiated, in duplicates, with 100 mJ/cm^2 UVB.
(§2) Human skin equivalents were fixed in 10% formalin before embedding in paraffin and cutting into 5 μm-thick sections. Sections were deparaffinized in xylene, rehydrated in ethanol baths, rinsed in deionised water. Antigen retrieval in 10 mM citrate buffer pH6 at 90° C. for 20 minutes was performed before blocking reaction in goat serum 3% for 1 hour. […]

[2] = tested on: Loricrin; assay: Loricrin immunostaining in human skin equivalents; conditions: versus untreated control, extract last 7 days, retinol last 4 days
Protocol: as §1, §2

[3] = tested on: Cytokeratin 10; assay: Cytokeratin 10 immunostaining in human skin equivalents; conditions: versus untreated control, retinol last 4 days
Protocol: as §1, §2

CC1=C(/C=C/C(C)=C/C=C/C(C)=C/CO)C(C)(C)CCC1 [retinol]
decreased: SESN3 staining intensity [1] | Loricrin immunostaining [2] | Cytokeratin 10 immunostaining [3]
